These results are taken from patent US20230172936A1, “VCP/p97 INHIBITOR FOR THE TREATMENT OF CANCER” (Cleave Therapeutics, Inc., priority 2020, published 2023).

Molecules are shown by their SMILES. Read-outs that look alike come from different tables or passages of the source.

Data set [1] deals with MOML-13. As to the kind of experiment: Combination Index (Chou-Talalay) of Compound 1 with additional therapeutic agents. To be noted: for Combination Index of Compound 1 + agent: MOML-13, CI scores across all 3 ratios averaged; for action of the combination with Compound 1 (synergistic, additive, antagonistic): MOML-13 (FLT3 heterozygous, BRCA2 mutant). It counts as cell-based, human. On the procedure:
(§1) Each combination was tested in 3 cell lines: MOML-13 (Human Acute Myeloid Leukemia cell line; Addex Bio), MV-4-11 (Human B Myelomoncytic Leukemia cell line; ATCC), and OCI-AML-3 (Human Acute Myeloid Leukemia cell line).
(§2) Within this range, 20 dose levels were tested for each combination, with each response determined in duplicate. […] The actual drug concentrations in the ratios were determined from the IC50 values obtained for each individual drug.
(§3) Raw data was analyzed using Graph Pad Prism, four parameter logistic fits, and Chou-Talalay drug combination analyses. […] For data points with Fe<0, the fractional effect was set to 0.001. Data points with Fe>0.99 or <0.01 were omitted from the Chou-Talalay analysis because the Chou-Talalay analysis fits data to the Log of the fractional effect, with equal weight applied across the range of effect, such that the high and low end of the dose response, very small changes in effect within the range of experimental error erroneously skew the outcome of the model fit.
(§4) A Combination Index (CI) vs Fractional Effect plot showing the actual combination index plotted vs Fractional effect value was plotted for each combination dose. In this analysis, CI=1 represents additive activity, CI>1 represent less than additive activity (often referred to as antagonism) and CI<1=synergistic activity (better than additive).

Data set [2] has as its system MV-4-11. The description is as above. It counts as cell-based, human. The note with it: for Combination Index of Compound 1 + agent: MV-4-11, CI scores across all 3 ratios averaged. How it is done:
as §1, §2, §3, §4

The test system of data set [3] is OCI-AML-3. The data set is described as above. It counts as cell-based, human. To be noted: for Combination Index of Compound 1 + agent: OCI-AML-3, CI scores across all 3 ratios averaged. How it is done: as §1, §2, §3, §4
Data set [4] relates to MV4; 11 cell line. As to the kind of experiment: Combination treatments, Cell Titer-Glo viability after 72 hours. It counts as cell-based, human. How it is done:
(§5) The additional therapeutic agents for this example were azacitidine (Cayman Chemical Cat No. 11164), decitabine (Sigma Cat No. A3656) and venetoclax (InvivoChem Cat. No. V0001).
(§6) Cell Culture: Three human acute myeloid leukemia tumor cell lines were used in this study: HL60, MV4;11 and MOLM-13. HL60 and MV4;11 were grown in IMDM base media with 20% and 10% FBS, respectively. MOLM-13 was grown in RPMI 1640 base media with 20% FBS. All culture media contained 2 mM glutamine, 100 units/mL sodium penicillin G, […] gentamicin, and 100 μg/mL streptomycin sulfate. The tumor cells were cultured in tissue culture flasks in a humidified incubator at 37° C., in an atmosphere of 5% C02 and 95% air. Assay: Tumor cells were seeded in duplicate in a volume of 100 μL/well of media into 96-well micro-culture plates at initial densities low enough to allow for several population doublings (typically three to five) during the indicated incubation period. After a 24 hour incubation, test agents were added to each well. After 72 hours of culture with test articles, cell viability was determined using the Cell Titer-Glo® (Promega G7571) assay. Briefly, Cell Titer-Glo® (Promega G7571) reagents were equilibrated at room temperature for 30 minutes; 100 μL per well was added at endpoint (72 hours). Plates were gently shaken for two minutes and then incubated at room temperature for ten minutes prior to reading luminescence on the BMG Clariostar Plus microplate reader.
(§7) An IC50 ratio for each combination was calculated from the ratio of the combination IC50 as compared to the applicable no fixed agent (vehicle) control.
Background: ATP-based viability assays read luminescence as a measure of living cells.

Data set [5] relates to HL-60 cell line. The description is as above. It counts as cell-based, human. How it is done:
as §5, §6, §7

Data set [6] concerns MOML-13 cell line. The data set is described as above. The data set is classed as cell-based, human. How it is done: as §5, §6, §7
Data set [7] in a line: Adverse events and visual impairment in Phase I subjects. To be noted: at equivalent plasma exposure of Compound 1 and CB-5083.
Data set [8] relates to human A549 lung adenocarcinoma xenograft tumors. As to the kind of experiment: Tumor growth of A549 xenograft tumors. It counts as in vivo, mice. The note with it: 55 mg/kg QD4/3 off. From the text:
(§8) Group 1 received PO 4-days on, 3-days off doses (QD4/3 off) of vehicle.

The conditions of data set [9]: 55 mg/kg QD4/3 off.
Excerpt: as §8

Where [10] appears, read: MV4, 11, fixed agent Compound 1 - 185 nM.
The mark [11] stands for this setting: HL-60, fixed agent Compound 1 - 210 nM.
The mark [12] stands for this setting: MOML-13, fixed agent Compound 1 - 75 nM.

On to `COCC1(CO)C(=O)C2CCN1CC2` (stereo not shown) [APR-246], for which the “Combination Index of Compound 1 + agent” value was determined as 1.228 in [1], 1.285 in [2] and 1.279 in data set [3].

On to `C[C@@H]1COCCN1c1cc(C2([S@](C)(=N)=O)CC2)nc(-c2cc[nH]c3nccc2-3)n1` [AZD6738], for which the “Combination Index of Compound 1 + agent” value in data set [1] was 1.338; in data set [2], 1.228; in data set [3] it was 1.421.

On to `CN(C)CCCOc1ccc(-c2ccc3ncc4c(c3c2)n(C2CCOCC2)c(=O)n4C)cn1` [AZDO156], for which the “Combination Index of Compound 1 + agent” value in data set [1] was 1.293; in [2] it was 1.122; in data set [3] it was 1.159.

On to `Nc1ncn([C@@H]2O[C@H](CO)[C@@H](O)[C@H]2O)c(=O)n1` [Azacitidine, azacitidine, reference compound], for which the IC50 is 1100 nM in data set [4] (Homo sapiens, 72 h, MV4, 11, no fixed agent (vehicle), read-out: IC50); 2400 nM in [5] (Homo sapiens, 72 h, HL-60, no fixed agent (vehicle), read-out: IC50); 445 nM in data set [6] (Homo sapiens, 72 h, MOML-13, no fixed agent (vehicle), read-out: IC50). For the same molecule, the results for the “Combination: Monotherapy IC50 Ratio” value in [4] (setting [10]), in data set [5] (setting [11]) and in data set [6] (setting [12]) were 0.10, 0.82 and 0.28, respectively.

Regarding `Cc1cc2c(C(N)=O)cccc2n1-c1nc2c(c(NCc3ccccc3)n1)COCC2` [CB-5083, 1-[7,8-dihydro-4-[(phenylmethyl)amino]-5H-pyrano[4,3-d]pyrimidin-2-yl]-2-methyl-1H-indole-4-carboxamide, reference compound], the “symptoms of visual impairment or other visual adverse events” value in [7] is “visual adverse events as seen”. In addition, in [8], the TGI worked out at 33%. In addition, the drug-related deaths entry in data set [9] is “no drug-related deaths”.

On to `Nc1ncn([C@H]2C[C@H](O)[C@@H](CO)O2)c(=O)n1` [Decitabine, decitabine, reference compound], for which the IC50 turned out to be 390 nM in data set [4] (Homo sapiens, MV4-11, 72 h); 7.1 nM in [4] (setting [10]); 4030 nM in data set [5] (setting [11]); 5290 nM in data set [5] (Homo sapiens, HL-60, 72 h); 10.8 nM in data set [6] (Homo sapiens, 72 h); 6.5 nM in data set [6] (setting [12]). The “Combination: Monotherapy IC50 Ratio” value in [4] (setting [10]) came out at 0.02; in data set [5] (setting [11]), 0.76; in [6] (setting [12]), 0.60.

`CCc1nc(C(N)=O)c(Nc2ccc(N3CCC(N4CCN(C)CC4)CC3)c(OC)c2)nc1NC1CCOCC1` [Gilteritinib]: the figures for the “Combination Index of Compound 1 + agent” value in data set [1], in data set [2] and in [3] were 1.266, 0.799 and 1.514, respectively.

In the case of `CC(C)C[C@H](NC(=O)CNC(=O)c1cc(Cl)ccc1Cl)B(O)O` [Ixazomib], the “action of the combination with Compound 1 (synergistic, additive, antagonistic)” value in data set [1], in [2] (MV-4-11 (FLT3 homozygous mutant)) and in data set [3] (OCI-AML-3 (FLT3 wildtype)) was “antagonistic” throughout. The “Combination Index of Compound 1 + agent” value stood at 1.413 in [1], 1.546 in data set [2] and 1.438 in data set [3].

Regarding `COc1ccc([C@@H](O)c2cc(-c3ncnc4cc(N5CCOCC5)ccc34)c(F)cc2Cl)nn1` [Nedisertib], the “Combination Index of Compound 1 + agent” value is reported as 1.272 in data set [1], 0.986 in [2] and 1.170 in data set [3].

As to `NS(=O)(=O)OC[C@@H]1C[C@@H](n2ccc3c(N[C@H]4CCc5ccccc54)ncnc32)C[C@@H]1O` [Pevonedistat], the “Combination Index of Compound 1 + agent” value worked out at 1.120 in data set [1], 1.302 in data set [2] and 1.186 in data set [3].

Consider `Cn1ncnc1[C@H]1c2n[nH]c(=O)c3cc(F)cc(c23)N[C@@H]1c1ccc(F)cc1` [Talazoparib], for which, in data set [1], the “action of the combination with Compound 1 (synergistic, additive, antagonistic)” value is “strong synergy”. Also, the “Combination Index of Compound 1 + agent” value in data set [1] is given as 0.529; in data set [2], 0.769; in data set [3], 0.986.

`CC1(C)CCC(CN2CCN(c3ccc(C(=O)NS(=O)(=O)c4ccc(NCC5CCOCC5)c([N+](=O)[O-])c4)c(Oc4cnc5[nH]ccc5c4)c3)CC2)=C(c2ccc(Cl)cc2)C1` [Venetoclax]: the “Combination Index of Compound 1 + agent” value in [1] worked out at 0.730; in data set [2], 0.819; in [3], 0.855.

Broadly, the IC50 is the concentration at which inhibition is half-maximal. The TGI is how far tumour growth fell short of that in controls. High values mean much slowing of growth, low ones little slowing of growth.
